Where “and” joins values, the source holds several entries; their conditions need not be identical. Equal entries are not always repeated.
Legend:
Type in all cases: cell-based, human
[1] = system: ventral midbrain floor plate NSCs; assay: Early in vitro administration of MEKi and/or NOTCHi (DIV16-22), flow cytometry marker expression
Experimental: (§1) hESCs were differentiated to ventral midbrain neurons according to an established protocol (Nolbrant et al., 2017; Kirkeby et al., 2017). In brief, hESC were grown to 70-90% confluency, then disassociated with 0.5 mM EDTA. The cells were seeded at 10^4 cells/cm^2 in cell culture flasks or plates coated with human laminin-111 (1.2 μg/cm^2; BioLamina) and immediately put into contact with differentiation media. The cells were exposed to N2-based media from days in vitro (DIV) 0-8; 50% DMEM/F12+Glutamax (Gibco), 50% Neurobasal (Gibco), 1% N2 supplement CTS (Thermo Fisher Scientific), 5% GlutaMAX (Thermo Fisher Scientific), 0.2% P-S (Thermo Fisher Scientific) and supplemented with SMAD inhibitors SB431542 (10 μM; Miltenyi Biotec), Noggin (100 ng/mL; Miltenyi Biotec) for neural induction, Sonic Hedgehog C24II (SHH; 500 ng/mL; Miltenyi Biotec) for ventral fate, GSK3B inhibitor CHIR99021 (CHIR; 0.5-0.6 μM; Miltenyi Biotec) to promote caudalization. N2-based media was supplemented with fibroblast growth factor 8b (FGF8b; 100 ng/mL; Miltenyi Biotec) from DIV9-11. At DIV11, the cells were dissociated with accutase (Thermo Fisher Scientific) and seeded at 0.8×10^6 cells/[…] in a cell culture flask or plate coated with human laminin-111 (1.2 μg/cm^2) in DIV11-16 media (Neurobasal, 2% B27 supplement without vitamin A CTS (Thermo Fisher Scientific), 5% GlutaMAX, 0.2% P-S and supplemented with FGF8b (100 ng/mL), L-ascorbic acid (AA; 200 μM; Sigma), human Brain Derived Neurotrophic Factor (BDNF; 20 ng/mL; Miltenyi Biotec)) supplemented with Y-27632 (Miltenyi Biotec) at 10 μM. At day in vitro (DIV) 16, the cells were dissociated with accutase and either cryopreserved, or re-seeded in cell culture flasks/plates coated with poly-L-ornithine (0.002%) and Laminin-521 (1.5 μg/cm^2) in B27 media supplemented with BDNF (20 ng/mL), GDNF (20 ng/mL), L-ascorbic acid (200 μM), dcAMP (500 μM), DAPT (10 μM), and Y-27632 (10 μM) for extended in vitro culture allowing further differentiation and maturation of ventral midbrain neural stem cells into neurons.
(§2) Ventral midbrain dopaminergic (vmDA) progenitor cells were generated from hESCs in 2D in vitro culture as described in Example 1 and using reagents described in Table 1. At various days after initiating the differentiation the cell culture was dissociated into a single cell suspension using Accutase, counted on a NucleoCounter NC-200 and collected in N2 media (CTS™ Neurobasal™ medium supplemented with 1% CTS™ N-2 supplement). Dead cells were labelled using a LIVE/DEAD™ Fixable Near-IR Dead Cell Stain Kit. The cells were then resuspended in B27 media (CTS™ Neurobasal™ medium supplemented with 1% B-27™ supplement without vitamin A, 2 mM GSutaMAX™, 60 U/mL Penicillin-Streptomycin, 10 μM ROCK inhibitor). Cells were then fixed and permeabilized using the BD Transcription Factor Buffer Set (BD Biosciences) according to the manufacturer's instructions. The fixed cells were then stained with fluorescently conjugated antibodies, and the samples acquired on a BD LSR Fortessa or B FACSymphony (BD Biosciences). The fcs files were exported and analyzed in FlowJo 10.5.03.
(§3) To determine whether a cell was considered positive in its protein expression of a marker, gates were set as routinely done in the field at the edge of the fluorescent signal of a negative control sample. Examples of negative control samples used included unstained controls, fluorescence minus one (FMO) controls and most preferably biological negative control samples; all cells present above these threshold gates when experimental samples were run were considered positive. Antibodies: FOXA2 (1:320, Miltenyi), OTX2 (1:320, Miltenyi), SOX2 (1:40, B), LMXTA (1:2500, Novo Nordisk production), […] (1:40, AtlasAntibodies), ASCL1 (1:2500, Mitlenyi), INA (1:3000, AtlasAntibodies). […]

[2] = system: ventral midbrain floor plate NSCs; assay: Immunofluorescence staining after early administration and extended differentiation (DIV35); settings: early administration; IF staining, extended differentiation DIV35
Experimental: (§4) Following compound administration and flow cytometry analysis performed in FIGS. 2 and 3, all groups were differentiated for a further 11 days in vitro and then were fixed in 4% paraformaldehyde and stained with DAPI to identify all cell nuclei and primary antibodies against SOX2 (1:300), Ki-67 (1:250), LMX1A (1:3000), INA (1:200), tyrosine hydroxylase (TH; 1:500) and COL1A1 (1:300) followed by fluorescently labelled secondary antibodies. Images were acquired on an Olympus IX81 microscope using CellSens software. The immunofluorescence (IF) staining confirmed the flow cytometry results of FIG. 3 with extended differentiation showing that treatment with a NOTCHi alone reduced, compared to untreated controls, the amount of NSCs identified by SOX2 (FIG. 4A-D) and proliferative cells identified by KI67 (FIG. 5B,D) while maintaining the amount of neuronal cells identified by INA (FIG. 5A,C).
(§5) Cells were fixed in 4% paraformaldehyde (Alfa Aesar) for 10 minutes at room temperature. Unspecific antibody binding was blocked by incubating cells with PADT buffer; phosphate-buffered saline (PBS) without Ca2+ and Mg2+ (Gibco) with 0.02% sodium azide solution (Ampliqon), 0.5% Triton X-100 (Sigma), and 5% Donkey serum (Jackson Labs) for 30 minutes, followed by overnight incubation with primary antibodies (see Table X) at 4° C. The cells were washed 3 times with PBS without Ca2+ and Mg2+, blocked with PADT buffer for 15 minutes, and incubated with fluorophore-conjugated secondary antibodies (see Table X) for 2 hours at room temperature, protected from light. The cells were then counterstained with DAPI (10 μg/mL) for 5 minutes at room temperature, washed 3 times with PBS without Ca2+ and Mg2+, and stored at 4° C. in PBS without Ca2+ and Mg2+ supplemented with 0.02% sodium azide. Images were captured with a Zeiss Axio Observer microscope equipped with an Axiocam 512 camera and ZEN 3.2 (Pro) software (Zeiss).

VM NPCs = assay: FCM profile of VM neural cells at DIV22 after earlier NOTCHi treatment DIV16-22
Experimental: as §1, §2, §3

[3] = system: ventral midbrain floor plate NSCs; assay: Immunofluorescence staining after late administration and extended differentiation (DIV40); settings: late administration; IF staining, extended differentiation DIV40
Experimental: as §4, with “Figure,” for “FIGS. 2 and 3,”, “(1:1000),” for “(1:3000), INA (1:200),”, “results” for “results of FIG. 3”, “12A-D)” for “4A-D)”, “13B,D)” for “5B,D)”, “13A,C).” for “5A,C).”
as §5

[4] = system: ventral midbrain floor plate NSCs; assay: Late in vitro administration of MEKi and/or NOTCHi (DIV22-29), FCM/ICC marker expression
Experimental: as §1, §2, §3

[5] = early treatment DIV16-22, % of total viable cells, replicates #1-#4
[6] = early treatment, result in words
[7] = DIV22 after NOTCHi (DAPT) DIV16-22 every 48-72 hrs, flow cytometry, replicates #1-#11
[8] = DIV22 after NOTCHi DIV16-22, Mean of #1-#11
[9] = late administration DIV22-29, FCM/ICC, % of total cells, replicates #1-#4
[10] = late administration, result in words

## C[C@H](NC(=O)Cc1cc(F)cc(F)c1)C(=O)NC(C(=O)OC(C)(C)C)c1ccccc1 (stereo partly shown) [NOTCHi]
[1]; [5]
  FOXA2 expressing cells: 85.3% and 72.4% and 93.2%
  Ki67 expressing cells (proliferative marker): 16.6% and 18.6% and 17.7%
  LMX1A expressing cells: 88.4% and 77.2% and 94.5%
  SOX2 expressing cells (NSC marker): 59.6% and 57.3% and 65.7%
[1]; [6]
  expression of NSC marker SOX2 compared to controls: downregulated
  expression of proliferative marker KI67 compared to controls: downregulated
[2]
  amount of NSCs identified by SOX2 compared to untreated controls: reduced
  amount of neuronal cells identified by INA: maintaining
  expression of ventral midbrain lineage marker LMX1A: did not prevent
  formation of dopamine neurons (TH): did not prevent
  proliferative cells identified by KI67 compared to untreated controls: reduced
  proportion of stromal COL1A1 cells compared to control untreated cultures: dramatically reduced
VM NPCs; [7]
  ASCL1 expressing cells: 41.1% and 41.7% and 45.8% and 16.2% and 17.3% and 25.6% and 50.4% and 57.1% and 40.5% and 51.8% and 36.0%
  FOXA2 expressing cells: 69.7% and 76.2% and 82.7% and 78.0% and 75.5% and 35.2% and 85.4% and 98.2% and 82.1% and 94.9% and 67.6%
  INA expressing cells: 30.5% and 19.2% and 22.4% and 13.8% and 13.3% and 32.0% and 23.6% and 34.2% and 19% and 45.6% and 18.3%
  INA+/SOX2− cells: 13.8% and 4.7% and 6.2% and 2.6% and 5.0% and 6.0% and 7.3% and 13.6% and 5.7% and 20.1% and 7.0%
  Ki67 expressing cells: 6.4% and 8.1% and 9.7% and 7.8% and 5.2% and 19.8% and 5.9% and 4.8% and 6.0% and 6.6% and 6.1%
  SOX2 expressing cells: 70.9% and 86.3% and 88.3% and 77.2% and 78.5% and 76.4% and 72% and 70.5% and 64.7% and 65.7% and 69.5%
VM NPCs; [8]
  ASCL1 expressing cells, Mean: 38.5%
  FOXA2 expressing cells, Mean: 76.9%
  INA expressing cells, Mean: 24.7%
  INA+/SOX2− cells, Mean: 8.4%
  Ki67 expressing cells, Mean: 7.9%
  SOX2 expressing cells, Mean: 74.5%
[3]
  amount of NSCs identified by SOX2 compared to untreated controls: reduced
  amount of neuronal cells identified by INA: maintaining
  expression of ventral midbrain lineage marker LMX1A: did not prevent
  formation of dopamine neurons (TH): did not prevent
  proliferative cells identified by KI67 compared to untreated controls: reduced
  proportion of stromal COL1A1 cells compared to control untreated cultures: dramatically reduced
[4]; [9]
  FOXA2 expressing cells: 81.8% and 90.2% and 68% and 92.2%
  INA expressing cells (neuronal marker): 35.4% and 61.5% and 74.1%
  Ki67 expressing cells (proliferative marker): 21.3% and 1.65% and 3.87% and 2.98%
  LMX1A expressing cells: 95.4% and 75.4% and 91.8%
  SOX2 expressing cells (NSC marker): 62.1% and 21.9% and 63.7% and 43.6%
[4]; [10]
  expression of NSC marker SOX2 compared to controls: downregulated
  expression of proliferative marker KI67 compared to controls: downregulated
